# Measurements: US20060069132A1, “Azolecarboxamide herbicides” (priority 2004, published 2006)
# How the values were obtained:
# kochia = assay: Test C pre-/postemergence herbicide test; assay type: in vivo, Kochia scoparia
# Summary of the method: (§1)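 Emerged plants at the 1- to 4-leaf stage (2–18 cm), or freshly planted seeds, received test chemicals in a non-phytotoxic solvent mixture with surfactant. Response was visually scored against controls after 12 to 14 days in the greenhouse, on a 0 (no effect) to 100 (complete control) scale.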
# lambsquarters = assay: Test C pre-/postemergence herbicide test; assay type: in vivo, Chenopodium album
# Summary of the method: as §1
# common ragweed = assay: Test C pre-/postemergence herbicide test; assay type: in vivo, Ambrosia elatior; design: key to Plant response rating, Ragweed: 0 = no effect, 100 = complete control
# Summary of the method: as §1
# large crabgrass = assay: Test C pre-/postemergence herbicide test; assay type: in vivo, Digitaria sanguinalis
# Summary of the method: as §1
# [1] = test system: smallflower umbrella sedge; assay: Test C flooded paddy test; assay type: in vivo, Cyperus difformis; conditions: for Plant response rating, Sedge, Umbrella: 500 g ai/ha, visual rating after 12 to 14 days
# giant foxtail = assay: Test B pre-/postemergence herbicide test; assay type: in vivo, Setaria faberi
# Summary of the method: (§2)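 Seeds were planted and treated preemergence with compounds formulated in a non-phytotoxic solvent mixture containing surfactant, while plants at the 1- to 4-leaf stage (2 to 18 cm) received postemergence sprays. Flooded paddy plants were grown to the 2-leaf stage. After 13 to 15 days in a greenhouse, injury was visually rated 0–100 against untreated controls.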
# Surinam grass = assay: Test C pre-/postemergence herbicide test; assay type: in vivo, Urochloa decumbens
# Summary of the method: as §1
# goosegrass = assay: Test C pre-/postemergence herbicide test; assay type: in vivo, Eleusine indica
# Summary of the method: as §1
# pigweed = assay: Test B pre-/postemergence herbicide test; assay type: in vivo, Amaranthus retroflexus
# Summary of the method: as §2
# [2] = 125 g ai/ha, scale 0 (no effect) to 100 (complete control), visual, 12 to 14 days, preemergence
# [3] = 250 g ai/ha, scale 0 to 100 (0 no effect, 100 complete control), visual, 12 to 14 days, preemergence
# [4] = Preemergence, 500 g ai/ha, scale 0 to 100, 0 no effect, 100 complete control
# [5] = 250 g ai/ha, scale of 0 to 100, 0 is no effect, 100 is complete control
# [6] = scale 0 to 100 (0 no effect, 100 complete control)
# [7] = 62 g ai/ha, preemergence, scale 0 to 100
# [8] = 250 g ai/ha, scale 0-100, preemergence
# [9] = 500 g ai/ha, scale 0 to 100 (0 no effect, 100 complete control), visual, 12 to 14 days, preemergence
smiles,measurement,setting,value
CCN1CCc2c(NC(=O)c3cc(C(C)(C)C)nn3CC)cccc2C1=O [Compound 63],"Plant response rating (0 = no effect, 100 = complete control), Kochia","kochia; 62 g ai/ha, preemergence",30
same,"Plant response rating, Kochia",kochia; [2],80
same,"Plant response rating, Kochia",kochia; [3],90
same,Kochia plant response rating,kochia; [4],90
same,"Plant response rating (0 = no effect, 100 = complete control), Lambsquarters","lambsquarters; 62 g ai/ha, preemergence",30
same,"Plant response rating, Lambsquarters",lambsquarters; [2],95
same,"Plant response rating, Lambsquarters",lambsquarters; [3],100
same,Lambsquarters plant response rating,lambsquarters; [4],100
same,"Plant response rating (0 = no effect, 100 = complete control), Ragweed","common ragweed; 62 g ai/ha, preemergence",0
same,"Plant response rating, Ragweed",common ragweed; [2],0
same,"Plant response rating, Ragweed",common ragweed; [3],10
same,Ragweed plant response rating,common ragweed; [4],95
same,"Plant response rating (0 = no effect, 100 = complete control), Crabgrass, Large","large crabgrass; 62 g ai/ha, preemergence",10
same,"Plant response rating, Crabgrass, Large",large crabgrass; [2],85
same,"Plant response rating, Crabgrass, Large",large crabgrass; [3],90
same,"Crabgrass, Large plant response rating",large crabgrass; [4],100
same,"Sedge, Umbrella plant response rating","[1]; 62 g ai/ha, scale 0 to 100 (0 no effect, 100 complete control)",0
same,"Sedge, Umbrella plant response rating","[1]; 125 g ai/ha, scale of 0 to 100, 0 is no effect, 100 is complete control",70
same,"Sedge, Umbrella plant response rating",[1]; [5],80
same,"Plant response rating, Sedge, Umbrella",[1]; [6],90
same,"Plant response rating, Foxtail, Giant","giant foxtail; Postemergence, 500 g ai/ha, visual rating after 13 to 15 days, scale 0 (no effect) to 100 (complete control)",20
same,"Foxtail, Giant plant response rating","giant foxtail; Preemergence, 500 g ai/ha, scale 0 to 100",100
same,"Foxtail, Giant plant response rating","giant foxtail; postemergence, 125 g ai/ha, visual rating, scale 0 (no effect) to 100 (complete control)",10
same,"Plant response rating, Foxtail, Giant","giant foxtail; preemergence, 125 g ai/ha, 0 to 100 scale, 0 is no effect, 100 is complete control",60
same,"Plant response rating (0 = no effect, 100 = complete control), Surinam Grass","Surinam grass; 62 g ai/ha, preemergence",0
same,"Plant response rating, Surinam Grass",Surinam grass; [2],5
same,"Plant response rating, Surinam Grass",Surinam grass; [3],45
same,Surinam Grass plant response rating,Surinam grass; [4],60
same,"Plant response rating (0 = no effect, 100 = complete control), Goosegrass","goosegrass; 62 g ai/ha, preemergence",10
same,"Plant response rating, Goosegrass",goosegrass; [2],45
same,"Plant response rating, Goosegrass",goosegrass; [3],60
same,Goosegrass plant response rating,goosegrass; [4],90
same,"Plant response rating, Pigweed","pigweed; Postemergence, 500 g ai/ha; visual rating after 13 to 15 days, scale 0 (no effect) to 100 (complete control)",70
same,Pigweed plant response rating,"pigweed; postemergence, 125 g ai/ha; visual rating, scale 0 (no effect) to 100 (complete control)",40
same,"Plant response rating, Pigweed","pigweed; preemergence, 125 g ai/ha; 0 to 100 scale, 0 is no effect, 100 is complete control",100
CCn1nc(C(C)(C)C)cc1C(=O)Nc1ccc(OC)c(OC)c1 [Compound 298],"Plant response rating, Kochia",kochia; [7],80
same,"Plant response rating, Kochia",kochia; [2],95
same,"Plant response rating, Kochia",kochia; [8],100
same,"Plant response rating, Kochia",kochia; [9],100
same,"Plant response rating, Lambsquarters",lambsquarters; [7],100
same,"Plant response rating, Lambsquarters",lambsquarters; [2],100
same,"Plant response rating, Lambsquarters",lambsquarters; [8],100
same,"Plant response rating, Lambsquarters",lambsquarters; [9],100
same,"Plant response rating, Ragweed",common ragweed; [7],0
same,"Plant response rating, Ragweed",common ragweed; [8],0
same,"Plant response rating, Ragweed",common ragweed; [9],0
same,"Plant response rating, Crabgrass, Large",large crabgrass; [7],85
same,"Plant response rating, Crabgrass, Large",large crabgrass; [2],95
same,"Plant response rating, Crabgrass, Large",large crabgrass; [8],100
same,"Plant response rating, Crabgrass, Large",large crabgrass; [9],100
same,"Sedge, Umbrella plant response rating","[1]; 62 g ai/ha, scale 0 to 100",0
same,"Sedge, Umbrella plant response rating","[1]; 125 g ai/ha, scale 0 to 100 (0 no effect, 100 complete control)",0
same,"Sedge, Umbrella plant response rating",[1]; [5],70
same,"Plant response rating, Sedge, Umbrella",[1]; [6],80
same,"Foxtail, Giant plant response rating (0 to 100 scale)","giant foxtail; 125 g ai/ha, 0 = no effect, 100 = complete control, preemergence",80
same,"Foxtail, Giant plant response rating","giant foxtail; 125 g ai/ha, visual rating, scale 0 (no effect) to 100 (complete control), postemergence",10
same,"Plant response rating, Foxtail, Giant","giant foxtail; 500 g ai/ha, visual rating, 0 = no effect, 100 = complete control, preemergence",100
same,"Foxtail, Giant plant response rating","giant foxtail; postemergence, 500 g ai/ha, scale 0 to 100, 0 is no effect, 100 is complete control",50
same,"Plant response rating, Surinam Grass",Surinam grass; [7],5
same,"Plant response rating, Surinam Grass",Surinam grass; [8],40
same,"Plant response rating, Surinam Grass",Surinam grass; [9],70
same,"Plant response rating, Goosegrass",goosegrass; [7],85
same,"Plant response rating, Goosegrass",goosegrass; [2],95
same,"Plant response rating, Goosegrass",goosegrass; [8],100
same,"Plant response rating, Goosegrass",goosegrass; [9],100
same,Pigweed plant response rating (0 to 100 scale),"pigweed; 125 g ai/ha; 0 = no effect, 100 = complete control; preemergence",100
same,Pigweed plant response rating,"pigweed; 125 g ai/ha; visual rating, scale 0 (no effect) to 100 (complete control); postemergence",80
same,"Plant response rating, Pigweed","pigweed; 500 g ai/ha; visual rating, 0 = no effect, 100 = complete control; preemergence",100
same,Pigweed plant response rating,"pigweed; postemergence, 500 g ai/ha; scale 0 to 100, 0 is no effect, 100 is complete control",90
